Here are results for 18 compounds from patent US5654179A, “Nucleic acid preparation methods” (HRI Research, Inc., priority 1994, dated 1997).

For data set [1], the system named is DNA ligase from mouse erythroleukemia (MEL) cells. The following applies: incubation with hemoglobin; cited from earlier work.
Data set [2] concerns Taq polymerase. Type of data set: biochemical. Further details: key to Effect of cofactors on serum albumin: BSA / Effect of cofactors on transferrin: Bovine Transferrin: The presence of product bands ("+") indicated that the cofactor was, in conjunction with transferrin or serum albumin, able to overcome inhibition. As to the method:
(§1) Generally, PCR was carried out using 175-200 μM dNTPS (deoxyribonucleoside 5'-triphosphates) and 0.5 to 1.0 μM primers. Five units/100 μl of Taq polymerase were used. PCR reactions were overlaid with 30-100 μl light mineral oil. A typical PCR cycle for HIV amplification using a Perkin-Elmer Cetus DNA Thermal Cycler (Part No. N8010150) was: denaturation at 95° C. for 30 seconds; annealing at 55° C. for 30 seconds; and extension at 72° C. for 1 minute. PCR cycles were normally carried out in this manner for 35 cycles followed by 7 minutes at 72° C.
In some instances below, amplification of human histocompatibility (HLA) Class II genes was performed using primer pair GH26 (SEQ ID NO:2) and GH27 (SEQ ID NO:3) and human placental DNA to produce a 242-mer product (SEQ ID NO: 4). These primers and other primers are described in PCR Protocols: A Guide To Methods and Applications, Innis, M. A. et al. eds., pp. 261-271 (1990)).
Whole blood was prepared according to Mode III (see FIG. 1). Whole blood samples (100 μl) were lysed with protease K (0.5 mg/ml, 55° C. for 1 hour). The enzyme was inactivated by heating (95°-100°C., 10 minutes). Four sets of reactions were then set up involving the addition of interfering reagent to the protease lysate: 1) transferrin with 10 mM sodium bicarbonate; 2) transferrin with 20 mM sodium bicarbonate; 3) serum albumin with 10 mM sodium bicarbonate; and 4) serum albumin with no cofactor. These reaction were performed at room temperature for thirty minutes using a concentration range for transferrin and serum albumin (10, 25, 50, 75, 100, 150, 200 and 250 μg per 20 μl PCR rxn). PCR was then set up using the primer pair GH26/GH27 to produce a 242-mer product (see above). Two standard control reactions were run in separate tubes: i) a no nucleic acid target control; and 2) a positive control (human placental DNA). Four additional control lanes were run: 1) no inhibitor treatment (two lanes); 2) 10 mM sodium bicarbonate only (one lane); and 3) 50 μg transferrin only (one lane); and 4) transferrin with 10 mM sodium bicarbonate (two lanes). PCR was carried out for 35 cycles. The PCR products were thereafter electrophoresed (agarose) and visualized with ethidium bromide staining. The two above-named control reactions were electrophoresed in lanes 9 and 10 of FIG. 16A, respectively, as well as lanes 17 and 18 of FIG. 16B, respectively. In FIG. 16C, the positive control is in lane 1 and the negative control is in lane 2.
Whole blood was prepared according to Mode III (see FIG. 1). Whole blood samples (20 μl) were lysed with protease K (0.5 mg/ml, 55° C. for 1 hour). The enzyme was inactivated by heating (95°-100° C., 10 minutes). Reactions were then set up involving the addition of bovine transferrin or serum albumin with various cofactors, including bicarbonate ion, azide ion, thiocyanate ion, cyanate ion, oxalate ion, malonate ion, glycinate ion, and thioglycolate ion. These reaction were performed at room temperature for thirty minutes. PCR was then set up using the using primer pair GH26/GH27 to produce a 242-mer product (see above). PCR was carried out for 35 cycles. The PCR products were thereafter electrophoresed (agarose) and visualized with ethidium bromide staining.

Data set [3] deals with Taq polymerase. The following applies: cited from earlier work; for inhibitory concentration in PCR: final concentration.
The subject of data set [4] is Taq polymerase. Put plainly: PCR inhibition, SK38/39 system, 115-mer product on ethidium bromide gel or autoradiograph. Format: biochemical. The method, then: as §1
In other cases, amplification of HIV sequences was performed using primer pair SK-38 (SEQ ID NO:5) and SK-39 (SEQ ID NO:6) and 115-mer (SEQ ID NO:7) as target to produce a 115-mer product.
Where agarose gel electrophoresis was used, the PCR products were fractionated by electrophoresis through a 3% Nusieve/1% agarose gel in TBE buffer. Electrophoresis was typically carried out in a constant voltage of 8-10 V/cm. Following agarose gel electrophoresis, individual bands were, in most cases, visualized by ethidium bromide staining. This involved staining the agarose gel with 1 μg/ml ethidium bromide in TBE for 30 minutes followed by destaining the agarose gel with TBE for 30 minutes.
The chemical reaction was performed as follows. Two aliquots (30 mg/aliquot) of sodium borohydride (NaBH4) were added at ten minute intervals to 1 ml of 200 μM hematin (Sigma) in 1M Tris (pH 8.0) under argon in the dark. The pH was adjusted to 6.0 between additions. At the end of the reaction (20 minutes) the pH was adjusted to 1.0 and then neutralized to pH 7.0. Six aliquots (5 μl) of the product of the reaction corresponding to different amounts of reacted hematin (37.5 μM, 7.5 μM, 1.5 μM, 0.3 μM, 0.06 μM, 0.012 μM) were added to standard (20 μl) PCR reactions in different tubes using the SK38/39 system (see above). Three standard control reactions were run in separate tubes: i) a no nucleic acid target control; ii) a no primer control; and iii) a positive control (no hematin). In addition, unreacted hematin was added to four different tubes in different amounts (50 μM, 5 μM, 0.5 μM, and 0.05 μM). PCR was carried out for 30 cycles. The PCR products were thereafter electrophoresed (agarose) and visualized with ethidium bromide staining (FIG. 2A, lanes 1-13). The three above-named control reactions were electrophoresed in lanes 1, 2 and 3, respectively. […] The unreacted hematin tubes (lanes 4-7) show no product until hematin is present at a very low concentration (0.05 μM, lane 7), at which point product is evident. […] Indeed, product is evident where 1.5 μM reacted hematin or less was present. […] A score (i.e., % maximum intensity of a positive control) was given to each band. An OD unit of 1.0 corresponds to 100% of maximum intensity. After examination of a plot of the estimated OD units to the concentration of hematin (expressed in the log scale) in these PCR reactions, it is clear that approximately a thirty-fold concentration difference was achieved (reacted to unreacted).
The photochemical reaction was performed as follows. Stock biliverdin (Sigma, 5 mM) was diluted in solution (50 mM Tris pH 7.8) to a final concentration of 200 μM. Two aliquots (300 μl) were then made. One aliquot was left unreacted. The other aliquot was exposed to ultraviolet radiation from an HRI-100 for 16 hours using the industry standard, F8T5BL hot cathode dual bipin lamps. Thereafter, both the unirradiated and irradiated materials were added (5 μl) to standard (20 μl) PCR reactions in different tubes using the SK38/39 system (see above) and 10^9 copies of 115-mer target. Three standard control reactions were run in separate tubes: i) a no nucleic acid target control; ii) a positive control (no biliverdin); and iii) a no Taq control. PCR was carried out for thirty (30) cycles. The PCR products were thereafter electrophoresed (agarose) and visualized with ethidium bromide staining (FIG. 3A, lanes 1-5). […]

Data set [5] can be described thus: Spectroscopic analysis of photochemical treatment (300-700 nm scan). Type of data set: physicochemical. As to the method: In this case 0.5 ml of untreated biliverdin in solution (diluted in 50 mM Tris pH 7.8) to a final concentration corresponding to Apeak =0.7) was scanned using a Beckman Spectrophotometer Model DU-50 between 300 and 700 nm. Photochemically treated (1.5 hours and 16 hours of irradiation) biliverdin was similarly diluted and scanned. […] This corresponds to lane 5 in FIG. 3A where no PCR inhibition was observed.
In this case 0.5 ml of untreated bilirubin in solution (diluted in 50 mM Tris, pH 7.8 to a final concentration corresponding to Apeak =0.8) was scanned using a Beckman Spectrophotometer Model DU-50 between 300 and 700 nm. Photochemically treated (20 minutes, 60 minutes and 2.5 hours of irradiation) bilirubin was similarly diluted and scanned. […] With just 20 minutes of irradiation, this peak is reduced; with just 60 minutes of irradiation, this peak is weak; with 2.5 hours, it is eliminated. The 2.5 hour treatment corresponds to lane 8 in FIG. 4A where no PCR inhibition was observed.

Setting [6] is: hematin or protoporphyrin only, 500 μM stock.

Where a name gives a salt, the structure may show the parent alone. Read-outs that look alike come from different tables or passages of the source.

For hemoglobin, the “inhibition of DNA ligase from MEL cells” value in data set [1] is “not inhibitory”.

On to `N#CS` [Sodium Thiocyanate (NaSCN), Sodium Thiocyanate], for which, in the data set on Taq polymerase [2], the “Effect of cofactors on serum albumin: BSA” value (from here on “Effect of cofactors … BSA”) is “+” and the “Effect of cofactors on transferrin: Bovine Transferrin” value (“Effect of cofactors on transferrin” for short) is “+”.

With `C=CC1=C(C)c2cc3[n-]c(cc4[n-]c(cc5nc(cc1n2)C(C)=C5C=C)c(C)c4CCC(=O)O)c(CCC(=O)O)c3C.[Fe+2]` [heme], the “inhibitory concentration in PCR” value in the data set on Taq polymerase [3] was 0.8 µM.

As to `O=C(O)CS` [Sodium Thioglycolate (NaO2 CCH2 SH), Sodium Thioglycolate], in the data set with Taq polymerase [2], the “Effect of cofactors … BSA” value is “+” and the “Effect of cofactors on transferrin” value is reported as “+”.

As to `C=CC1=C(C)/C(=C/C2=NC(=C\c3[nH]c(/C=C4\NC(=O)C(C)=C4C=C)c(C)c3CCC(=O)O)/C(CCC(=O)O)=C2C)NC1=O` [biliverdin], the PCR product result in the data set with Taq polymerase [4] (biliverdin photochemically treated 16 hrs) was “product is visible”. The PCR inhibition entry in the data set on Taq polymerase [4] (biliverdin unirradiated, 5 μl of 200 μM in 20 μl PCR) is recorded as “completely inhibited”. Further, the “absorbance peak at approximately 450 nm after irradiation” value is reported as “very weak” in data set [5] (1.5 hours of irradiation) and “eliminated completely” in data set [5] (16 hours of irradiation).

`C=CC1=C(C)/C(=C/c2[nH]c(Cc3[nH]c(/C=C4\NC(=O)C(C)=C4C=C)c(C)c3CCC(=O)O)c(CCC(=O)O)c2C)NC1=O` [bilirubin]: the PCR product result is given as “product is visible” with Taq polymerase [4] (400 μM bilirubin, 2.5 hrs irradiation); “product is visible” with Taq polymerase [4] (800 μM bilirubin, 3.5 hrs irradiation); “Product is not visible” with Taq polymerase [4] (2 mM bilirubin, 4 hrs irradiation). Further, in the data set with Taq polymerase [4] (unreacted bilirubin, 400 μM, 800 μM and 2 mM), the PCR inhibition entry was “completely inhibited”. The “absorbance peak at approximately 450 nm after irradiation” value was “reduced” in data set [5] (20 minutes of irradiation), “weak” in data set [5] (60 minutes of irradiation) and “eliminated” in data set [5] (2.5 hours of irradiation).

In the case of `O=C(O)C(=O)O` [Sodium Oxalate (NaO2 CCO2 Na), Sodium Oxalate], the “Effect of cofactors … BSA” value in the data set on Taq polymerase [2] is on record as “+”.

With `O=C(O)O` [Sodium Bicarbonate (NaHCO3), Sodium Bicarbonate], in the data set on Taq polymerase [2], the “Effect of cofactors … BSA” value was “+” and the “Effect of cofactors on transferrin” value is “+”.

Consider serum albumin, for which the PCR product entry was “weak product band” in the data set on Taq polymerase [2] (serum albumin 25 μg with cofactor (lane 9)), “No product is visible” with Taq polymerase [2] (serum albumin 10 to 250 μg without cofactor) and “strong product bands” in the data set with Taq polymerase [2] (serum albumin higher concentrations with cofactor (lanes 10-16)).

`O=C(O)O` [cofactor, sodium bicarbonate]: the PCR product entry in the data set on Taq polymerase [2] is on record as “No product is visible”.

For the compound `C=CC1=C(C)c2cc3[n-]c(cc4[n-]c(cc5nc(cc1n2)C(C)=C5C=C)c(C)c4CCC(=O)O)c(CCC(=O)O)c3C.O.[Fe+2]` [hematin], in the data set with Taq polymerase [3], the “inhibition of PCR / Taq polymerase” value was “potent inhibitors of Taq polymerase” and the “inhibitory concentration in PCR” value was ≥ 0.8 µM. The PCR inhibition result with Taq polymerase [4] (setting [6]) is given as “completely inhibited”. For the same compound, in the data set on Taq polymerase [4] (sodium borohydride reduction, visual band intensity), the “concentration difference (reacted to unreacted) in PCR inhibition” value is listed as “thirty”. Moreover, in the data set with Taq polymerase [4] (unreacted hematin, no product at 50, 5, 0.5 μM), the “concentration at which PCR product is evident” value worked out at 0.05 µM.

For `NCC(=O)O` [Sodium Glycinate (NaO2 CH2 NH2), Sodium Glycinate], in the data set with Taq polymerase [2], the “Effect of cofactors … BSA” value is “+” and the “Effect of cofactors on transferrin” value is on record as “+”.

With `N#CO` [Sodium Cyanate (NaOCN), Sodium Cyanate], in the data set with Taq polymerase [2], the “Effect of cofactors … BSA” value is given as “+” and the “Effect of cofactors on transferrin” value was “+”.

As for `[Fe+2]` [Fe++], in the data set on Taq polymerase [3], the “inhibition of PCR / Taq polymerase” value is reported as “inhibit PCR”.

Take `O=C(O)CC(=O)O` [Sodium Malonate (NaO2 CCH2 CO2 Na), Sodium Malonate]: in the data set with Taq polymerase [2], the “Effect of cofactors … BSA” value is recorded as “+”.

As for `C=CC1=C(C)c2cc3[nH]c(cc4nc(cc5[nH]c(cc1n2)c(C)c5CCC(=O)O)C(CCC(=O)O)=C4C)c(C)c3C=C` [protoporphyrin], in the data set on Taq polymerase [3], the “inhibitory concentration in PCR” value was 20 µM. In addition, the PCR inhibition entry in the data set with Taq polymerase [4] (setting [6]) is recorded as “completely inhibited”.

For the compound `[N-]=[N+]=[N-]` [Sodium Azide (NaN3), Sodium Azide], the “Effect of cofactors … BSA” value in the data set on Taq polymerase [2] (cofactor with BSA) is recorded as “+”.

On to `[Fe+3]` [Fe^+++], for which the “inhibition of PCR / Taq polymerase” value with Taq polymerase [3] is listed as “inhibit PCR”.
